# Test results: patent publication US7019034B2, “Compositions and methods for reducing serum glucose and triglyceride levels in diabetic mammals” (Allergan, Inc., priority 2003, dated 2006)
# Tests used:
# RXRα = molecular target: T1, RXRα (Homo sapiens, UniProt P19793); assay: holoreceptor transactivation assay, RXRα; assay type: cell-based; settings: number in brackets
# T1 construct: expressed in transfected cells
# T1 sequence (P19793 1-462): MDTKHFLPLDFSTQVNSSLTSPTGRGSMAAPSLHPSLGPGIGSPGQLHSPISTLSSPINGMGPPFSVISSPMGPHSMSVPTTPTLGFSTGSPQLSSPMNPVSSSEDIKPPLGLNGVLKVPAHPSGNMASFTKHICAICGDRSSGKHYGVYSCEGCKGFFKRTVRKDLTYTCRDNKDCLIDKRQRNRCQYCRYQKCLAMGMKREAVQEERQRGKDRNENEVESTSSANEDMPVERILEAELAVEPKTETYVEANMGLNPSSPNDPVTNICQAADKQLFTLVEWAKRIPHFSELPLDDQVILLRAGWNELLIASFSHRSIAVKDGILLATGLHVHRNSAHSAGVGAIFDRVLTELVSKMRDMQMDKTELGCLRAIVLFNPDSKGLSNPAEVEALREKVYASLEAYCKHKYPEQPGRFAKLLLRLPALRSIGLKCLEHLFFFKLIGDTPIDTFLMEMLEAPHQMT
# Source text: A holoreceptor transactivation assay and a ligand binding assay which measure the antagonist/agonist like activity of the compounds of the invention, or their ability to bind to the several retinoid receptor subtypes, respectively, are described in published PCT Application No. WO WO93/11755 (particularly on pages 30–33 and 37–41) published on Jun. 24, 1993, the specification of which is also incorporated herein by reference. […] The results obtained in this assay are expressed in EC50 numbers, as they are also in the chimeric receptor transactivation assay. The results of the ligand binding assay are expressed in Ki numbers. (See Cheng et al. Biochemical Pharmacology Vol. 22 pp 3099–3108, expressly incorporated herein by reference.)
# (§1) Particularly, the transactivation data pertaining to activation of the RAR receptors were obtained in the chimeric assay, and the transactivation data pertaining to the activation of RXR receptors were obtained in the holoreceptor assay.
# (§2) In Table 1 NA stands for not active at all as an agonist. ND stands for not determined. The first row of numbers pertaining to each compound is the measured EC50 number. […] The third row of numbers pertaining to each compound is the binding Ki number.
# RXRβ = molecular target: T2, RXRβ (UniProt P28704); assay: holoreceptor transactivation assay, RXRβ; assay type: cell-based
# T2 sequence (P28704 1-520): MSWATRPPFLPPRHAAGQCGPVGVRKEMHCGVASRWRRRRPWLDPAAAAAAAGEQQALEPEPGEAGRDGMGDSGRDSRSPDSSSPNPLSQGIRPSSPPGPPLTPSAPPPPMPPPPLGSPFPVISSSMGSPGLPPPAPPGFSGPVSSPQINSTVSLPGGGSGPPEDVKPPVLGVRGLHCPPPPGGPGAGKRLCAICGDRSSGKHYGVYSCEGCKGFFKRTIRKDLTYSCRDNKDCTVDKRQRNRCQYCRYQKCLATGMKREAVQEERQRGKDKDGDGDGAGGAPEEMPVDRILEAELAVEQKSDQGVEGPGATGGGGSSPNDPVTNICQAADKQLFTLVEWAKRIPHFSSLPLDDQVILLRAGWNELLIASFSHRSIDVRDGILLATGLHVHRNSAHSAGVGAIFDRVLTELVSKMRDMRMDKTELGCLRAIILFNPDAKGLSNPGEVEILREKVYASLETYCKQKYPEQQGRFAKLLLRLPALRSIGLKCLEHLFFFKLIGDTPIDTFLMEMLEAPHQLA
# Source text: The results obtained in this assay are expressed in EC50 numbers, as they are also in the chimeric receptor transactivation assay. The results of the ligand binding assay are expressed in Ki numbers.
# as §1, §2
# diabetic db/db mice [1] = assay: serum glucose in diabetic db/db mice, 7 days oral dosing; assay type: in vivo; settings: for Glucose: 10 mg/kg once daily oral gavage, mean +/- SD
# Experimental: (§3) Effects of RXR agonists on serum glucose and triglyceride were studied in diabetic db/db mice. […] Briefly, animals were dosed once daily by oral gavage using corn oil vehicle for a period of 7 consecutive days. Serum samples were collected on day 1 (first day of dosing) and day 7 at hour 0 (immediately prior to dosing) and hour 3 (approximately 3 hours after dosing). Serum glucose and triglyceride levels of these samples were measured as described in the reference manuals: Glucose/HK. Boehringer Mannheim Corporation, 9115 Hague Road, Indianapolis, Ind., USA and Triglycerides/GPO. Roche Diagnostics Corporation, 9115 Hague Road, Indianapolis, Ind., USA, expressly incorporated herein. Only those animals with glucose levels of higher than 300 mg/dl at 0 hour on day 1 were considered as diabetic and included in data analysis.
# (§4) A measured amount of dosing solution was withdrawn into a metal feeding tube attached to a marked syringe. Animals were restrained by grasping of their back skin while the feeding tube was gently inserted into their mouth and into esophagus. A fixed amount of the dosing solution was displaced into the esophagus/stomach of the animal by pushing the plunger of the syringe. Serum samples were collected from the retro-orbital sinus while the animals were anesthetized. These samples were analyzed by using commercially available kits from Boehringer Manheim for their glucose levels and Roche Diagnostics for their triglyceride levels in a Boehringer Manheim Hatachi Clinical Chemistry Analyzer.
# (§5) For glucose assay, an enzymatic reaction using hexokinase and glucose-6-phosphodehydrogenase to catalyze glucose to gluconate-6phosphate and NADPH was employed. The amount of NADPH formed during these reactions was equivalent to the amount of glucose in the serum and was measured with a spectrophotometer. For triglycerides, a series of enzymatic reactions which included lipase, glycerol kinase and glycerol phosphate oxidase to formed dihydroacetone phosphate and peroxidase. The peroxidase produced catalyzed a reaction between peroxide and 4-aminophenazone and 4-chlorophenol in a Trinder reaction to generate a color change. This color change was measured by a spectrophotometer and reflected the amount of triglyceride in the sample.
# diabetic db/db mice [2] = assay: serum triglycerides in diabetic db/db mice, 7 days oral dosing; assay type: in vivo; settings: for Triglycerides: 10 mg/kg once daily oral gavage, mean +/- SD
# Experimental: as §3, §4, §5
# young db/db mice = assay: serum thyroxine (T4) in young db/db mice, 14 days oral dosing; assay type: in vivo
# Experimental: In another study the efficacy of RXR agonists in the prevention of diabetes was tested in young db/db mice. […] Serum samples were analyzed by using commercially available kits from Boehring Manheim for their thyroxine (T4) levels in a Boehringer Manheim Hatachi Clinical Chemistry Analyzer as described in the reference manual of Boehringer Mannheim Corporation, 9115 Hague Road, Indianapolis, Ind., USA, expressly incorporated herein.
# [3] = Day 1, 0 hr (immediately prior to dosing)
smiles,measurement,setting,value
"CC(/C=C/[C@@H]1C[C@]1(C)c1ccc2c(c1)C(C)(C)CCC2(C)C)=C\C(=O)O [Standard compound, (2E,4E,1′S,2′S)-3-methyl-5-[2′-methyl-2′-(5,5,8,8-tetramethyl-5,6,7,8-tetrahydro-naphthalen-2-yl)-cyclopropyl]-penta-2,4-dienoic acid, reference compound]",RXR α efficacy in percentage as compared to the standard compound,RXRα,100%
same,RXR β efficacy in percentage as compared to the standard compound,RXRβ,0.4(100)1%
same,efficacy in activating RXRβ compared with RXRα and RXRγ subtypes (in words),RXRβ,"approximately equally efficacious in activating the RXRα, RXRβ and RXRγ subtypes"
same,Glucose,diabetic db/db mice [1]; [3],501 ± 87 mg/dL
same,Glucose,"diabetic db/db mice [1]; Day 1, 3 hr",403 ± 86 mg/dL
same,Glucose,"diabetic db/db mice [1]; Day 7, 0 hr",367 ± 101 mg/dL
same,Glucose,"diabetic db/db mice [1]; Day 7, 3 hr",301 ± 40 mg/dL
same,effect on serum glucose in diabetic mouse (in words),"diabetic db/db mice [1]; mouse, in vivo",capable of lowering serum glucose
same,Triglycerides,diabetic db/db mice [2]; [3],183 ± 50 mg/dL
same,Triglycerides,"diabetic db/db mice [2]; Day 1, 3 hr",220 ± 87 mg/dL
same,Triglycerides,"diabetic db/db mice [2]; Day 7, 0 hr",137 ± 32 mg/dL
same,effect on serum triglyceride (in words),"diabetic db/db mice [2]; mouse, in vivo",induces hypertriglyceridemia
same,Serum thyroxine,"young db/db mice; 5 mg/kg orally for 14 days, mean +/- SD (n = 7)",0.83 ± 0.29 µg/dL
same,effect on serum T4 (in words),"young db/db mice; mouse, in vivo",lowering serum T4
